Measured values from patent US4798841A, “Tetrahydropyridine oxime cholinergic agents and method of treatment” (Warner-Lambert Company, priority 1987, dated 1989).
Where two headings read alike, the source gives them in different places.

What was measured:
muscarinic binding site [1] = assay: RQNB screening assay: inhibition of radiolabeled quinuclidinyl benzilate (muscarinic antagonist) binding in rat cerebral cortex tissue; conditions: for % Inhib. RQNB: @ 10^-6 M; for IC50: rat cerebral cortex, radiolabeled quinuclidinyl benzilate
muscarinic binding site [2] = assay: RCMD screening assay: inhibition of radiolabeled cis-methyldioxolane (muscarinic agonist) binding in rat cerebral cortex tissue; conditions: for % Inhib. RCMD: @ 10^-7 M; for IC50: rat cerebral cortex, radiolabeled cis-methyldioxolane
Protocol: Similarly, in the RCMD screening assay, described more fully by T. W. Vickeroy et al., J. Pharmacol. and Exp. Ther., 229 (3): 747 (1984), rat cerebral cortex tissue was treated with radiolabeled cis-methyldioxolane, a known muscarinic binding site agonist. The percent inhibition at given concentrations or concentrations of test compounds required to inhibit 50% of the binding of this muscarinic agonist were then determined.

laboratory rats = assay: Scopolamine induced swimming test (SIS); type: in vivo, rat; conditions: for minimal effective dose: rat, read-out: Minimal Effective Dose for Reversal of Scopolamine-Induced Swimming Hyperactivity; for Reversal of scopolamine-induced swimming hyperactivity: result in words
Protocol: In the scopolamine induced swimming test (SIS), the ability of representative compounds of the present invention to reverse the hyperactive swimming behavior of laboratory rats given scopolamine was assessed. In this test, untreated rats will generally swim between 20 to 30 meters during a five minute test period. […] The effect of scopolamine is centrally mediated; the ability of a test compound to reverse the hyperactive swimming behavior induced by scopolamine is thus a measure of the central cholinergic activity of the compound.

male Swiss-Webster mice = assay: Antiwrithing (AW) test, acetic acid induced writhing; type: in vivo; conditions: ip; intraperitoneal dosing; mouse; acetic acid 0.6%; read-out: ED50 (dose necessary to suppress writhing by 50% relative to vehicle controls)
Protocol: The antiwrithing (AW) test provides preliminary assessment of compounds with potential analgesic activity. The test is performed with male Swiss-Webster mice. Compounds are administered in aqueous 0.2% methylcellulose or other appropriate vehicles in volumes of 10 ml/kg. Dosages represent active moiety.
Acetic acid (0.6%, 10 ml/kg) is injected intraperitoneally after administration of the compound. writhing movements are counted for five minutes starting seven minutes after the acetic acid injection. Data are expressed as ED50 values, where the ED50 is the dose necessary to suppress writhing by 50% relative to vehicle controls. ED50 values are calculated by nonlinear regression analysis.

[3] = tested on: aged humans and non-human primates with decreased cognition; conditions: result in words; cited from earlier work
[4] = tested on: patients clinically diagnosed as having presenile primary degenerative dementia; conditions: double blind study; Christie et al. 1981; cited from earlier work
[5] = Davis et al. 1983; cited from earlier work

SMILES	% Inhib. RQNB (muscarinic binding site [1]) [%]	% Inhib. RCMD (muscarinic binding site [2]) [%]	minimal effective dose (laboratory rats; sc, Subcutaneous) [mg/kg]	IC50 (muscarinic binding site [1]) [nM]	IC50 (muscarinic binding site [2]) [nM]	further results
CC(=NO)C1=CCCNC1 [Hydrogen 3-Methyl, 1-(1,2,5,6-Tetrahydro-3-pyridinyl)ethanone oxime]	24	85	3.2	–	–	–
CN1CCC=C(C(CCc2ccccc2)=NO)C1 [Methyl 3-Phenylmethyl]	86	66	–	–	–	–
CC(=NO)C1=CCN(C)CC1 [Methyl 4-Methyl]	–	–	3.2	10000	490	–
CN1CCC=C(C=NO)C1 [Methyl Hydrogen, 1,2,5,6-Tetrahydro-1-methyl-3-pyridinecarboxaldehyde oxime]	8	22	32	–	–	–
CN1[C@@H]2C[C@@H](OC(=O)[C@H](CO)c3ccccc3)C[C@H]1[C@@H]1O[C@@H]12 [scopolamine, reference compound]	–	–	–	–	–	Increase of swimming distance above base-line (laboratory rats; scopolamine 0.1 mg/kg, five minute test period): 75-125%
CC(=NO)C1=CCCN(C)C1 [Methyl 3-Methyl, 1-(1,2,5,6-Tetrahydro-1-methyl-3-pyridinyl)-ethanone oxime]	–	–	3.2	4650	19	ED50 (male Swiss-Webster mice): 1.1 mg/kg
CNC(=O)Oc1ccc2c(c1)[C@]1(C)CCN(C)[C@@H]1N2C [physostigmine, reference compound]	–	–	–	–	–	Reversal of scopolamine-induced swimming hyperactivity (laboratory rats): can be reversed; Memory in aged humans and non-human primates with decreased cognition [3]: improved memory
CN1CCC=C(C(=NO)c2ccccc2)C1 [Methyl 3-Phenyl, Phenyl(1,2,5,6-tetrahydro-1-methyl-3-pyridinyl)methanone oxime]	51	39	–	–	–	–
CCC(=NO)C1=CCCN(C)C1 [Methyl 3-Ethyl, 1-(1,2,5,6-Tetrahydro-1-methyl-3-pyridinyl)-1-propanone oxime]	–	–	32	2000	50	–
COC(=O)C1=CCCN(C)C1 [arecoline, methyl ester of 1,2,5,6-tetra-hydro-1-methyl-3-pyridinecarboxylic acid, reference compound]	–	–	–	–	–	Reversal of scopolamine-induced swimming hyperactivity (laboratory rats): can be reversed; Test of picture recognition [4]: Significant improvement
CCCCC(=NO)C1=CCCN(C)C1 [Methyl 3-n-Butyl, 1-(1,2,5,6-Tetrahydro-1-methyl-3-pyridinyl)-1-pentanone oxime]	–	–	32	300	20	–
CC(C)/C(=N\O)C1=CCCN(C)C1 [Methyl 3-(1-Methylethyl) (anti), 2-Methyl-1-(1,2,5,6-tetrahydro-1-methyl-3-pyridinyl)-1-propanone oxime]	10	10	–	–	–	–
Nc1ccncc1N [3,4-diaminopyridine]	–	–	–	–	–	Age-related cognitive deficits [5]: ameliorate age-related cognitive deficits
CCCN1CCC=C(C(CCc2ccccc2)=NO)C1 [n-Propyl 3-Phenylmethyl]	63	3	–	–	–	–
C=CCCC(=NO)C1=CCCN(C)C1 [Methyl 3-(CH2 CH2 CHCH2), 1-(1,2,5,6-Tetrahydro-1-methyl-3-pyridinyl)-4-penten-1-one oxime]	–	–	32	600	40	–
CCCN1CCC=C(C(CCc2ccccc2)=NO)C1 [n-Propyl 3-(CH2 CH2Ph), 3-Phenyl-1-(1,2,5,6-tetrahydro-1-propyl-3-pyridinyl)-1-propanone oxime]	–	–	–	–	–	minimal effective dose (laboratory rats; Oral): 3.2 mg/kg
CC(C)/C(=N/O)C1=CCCN(C)C1 [Methyl 3-(1-Methylethyl) (syn), 2-Methyl-1-(1,2,5,6-tetrahydro-1-methyl-3-pyridinyl)-1-propanone oxime]	35	43	–	–	–	–
COCCCC(=NO)C1=CCCN(C)C1 [Methyl 3-(CH2 CH2 CH2 OCH3), 4-Methoxy-1-(1,2,5,6-tetrahydro-1-methyl-3-pyridinyl)-1-butanone Oxime]	–	–	32	2500	30	–
CN1CCC=C(C(CCc2ccccc2)=NO)C1 [Methyl 3-(CH2 CH2Ph), 3-Phenyl-1-(1,2,5,6-tetrahydro-1-methyl-3-pyridinyl)-1-propanone oxime]	–	–	32	–	–	–
CCN1CCC=C(C(C)=NO)C1 [Ethyl 3-Methyl, 1-(1-Ethyl-1,2,5,6-tetrahydro-3-pyridinyl)ethanone oxime]	23	21	–	–	–	–
C#CCCC(=NO)C1=CCCN(C)C1 [Methyl 3-(CH2 CH2 C CH)]	–	–	–	1000	7	–
CN1CCC=C(C(COCc2ccccc2)=NO)C1 [Methyl 3-(CH2 OCH2 Ph)]	38	30	–	–	–	–
